Assay results: paper PMC11195807, “Development of a multi-targeted chemotherapeutic approach based on G-quadruplex stabilisation and carbonic anhydrase inhibition” (Journal of Enzyme Inhibition and Medicinal Chemistry, 2024)
Each block holds one compound with its values, some of them ahead of it.

Legend:
[1] = tested on: c-Myc; test: CD melting experiments, c-Myc GQ; assay type: binding; details: for ΔT1/2 c-Myc: 1 molar equiv compound, T1/2 of DNA alone 70.0 °C; for ΔΔT1/2 c-Myc: ΔT1/2 of compound minus ΔT1/2 of berberine, 1 molar equiv
Text: (§1) The 21 synthesised MTDLs were screened for their ability to bind to and stabilise DNA GQ-forming sequences, compared to berberine, by CD experiments. Indeed, circular dichroism has shown to be outstandingly useful and informative for noncanonical nucleic acid secondary structures. For this purpose, a G-rich 23-nucleotide truncation (23-nt) of the human telomeric sequence (Tel23) and two G-rich motifs from the promoter regions of c-KIT (c-Kit1) and c-MYC (c-Myc) oncogenes were employed. First, the overall topology adopted by each DNA sequence in K^+-containing buffer was verified by CD spectra. […] GQ conformation (Figure S1, Supporting Information). On the other hand, c-Kit1 and c-Myc sequences adopted a parallel GQ conformation, showing a distinctive positive band at around 260 nm and a negative one at ∼240 nm in their CD spectra (Figures S2 and S3, Supporting Information).
(§2) Afterwards, the GQ-stabilising properties of the molecules were assessed by CD melting experiments, measuring the differences in the apparent melting temperatures of the DNA in the presence and absence of compounds (ΔT1/2) (Figures S4–S6 and Table S2, Supporting Information). […] This could be explained by considering the higher accessibility of the external G-tetrads in the case of parallel GQs compared to the hybrid one[52], which would allow the additional CAI moiety of conjugated compounds to be better accommodated in the binding site. […] . […] .

[2] = biological target: T1, hCA XII (Homo sapiens, UniProt O43570); test: stopped-flow CO2 hydrase assay, hCA XII; assay type: biochemical; details: for Selectivity index (SI) I/XII: hCA XII over hCA I; for Selectivity index (SI) II/XII: hCA XII over hCA II; for Ki: mean ± SEM of three assays
T1 construct: made in house
Text: (§3) An Applied Photophysics stopped-flow instrument has been used for assaying the CA-catalysed CO2 hydration activity, as reported earlier. […] All hCA isoforms were recombinant proteins, being obtained in-house as reported earlier.

[3] = tested on: Tel23; test: CD melting experiments, Tel23 GQ; assay type: binding, human; details: for ΔT1/2 Tel23: 2 molar equiv compound, T1/2 of DNA alone 53.5 °C; for ΔΔT1/2 Tel23: ΔT1/2 of compound minus ΔT1/2 of berberine, 2 molar equiv
Text: as §1, §2

[4] = biological target: T2, hCA II (Homo sapiens, UniProt P00918); test: stopped-flow CO2 hydrase assay, hCA II; assay type: biochemical
T2 construct: made in house
Text: . The structure-activity relationship is discussed separately for the two compound subsets. Another code pattern is included for the MTDLs in Table 1, which indicates the derivative CAI type (sulphonamide, S or coumarin, C) and the number of atoms in the spacers connecting either berberine and the triazole (carbon atoms) or the triazole and the benzenesulfonamide/coumarin scaffolds (carbon or oxygen atoms).
(§4) An Applied Photophysics stopped-flow instrument has been used for assaying the CA-catalysed CO2 hydration activity, as reported earlier. The enzyme concentrations were in the range 5–12 nM. All hCA isoforms were recombinant proteins, being obtained in-house as reported earlier.

[5] = biological target: T3, hCA IX (Homo sapiens, UniProt Q16790); test: stopped-flow CO2 hydrase assay, hCA IX; assay type: biochemical; details: for Selectivity index (SI) I/IX: hCA IX over hCA I; for Selectivity index (SI) II/IX: hCA IX over hCA II; for Ki: mean ± SEM of three assays
T3 construct: made in house
Text: as §3

[6] = tested on: Hairpin; test: CD melting experiments, hairpin DNA duplex; details: 2 molar equiv compound, T1/2 of DNA alone 66.0 °C
Protocol: To evaluate the possible binding and stabilisation of double-stranded DNA, a 27-nt long hairpin-forming sequence (Hairpin) was employed.
In particular, the following DNA sequences were synthesised and employed for the experiments: d([sequence]) (c-Kit1), d([sequence]) (c-Myc), d([sequence]) (Tel23), and d([sequence]) (Hairpin). Oligonucleotides were dissolved in the proper buffer and their concentration was measured by UV absorption at 90 °C, as previously reported[80]^,[81]. To achieve the correct folding of the sequences, the DNA solutions were heated in a water bath at 90 °C for 5 min, and then allowed to cool slowly to room temperature overnight. Then, DNA samples were stored at 4 °C for 24 h, before data acquisition.
The samples were prepared by dissolving the oligonucleotides in 5 mM KH2PO4/K2HPO4 buffer (pH 7.0) containing 20 mM KCl (or LiCl in the case of c-Myc because of its high thermal stability). DNA concentrations of 20 µM for GQs and 30 µM for Hairpin were used. For each compound, a 10 mM stock solution in 100% DMSO was prepared. […] CD spectra were acquired at 20 and 100 °C, in the 230–320 nm wavelength range, averaged over three scans and subtracted of the buffer baseline. The scanning speed was set to 100 nm/min, with a 0.5 s response time, and 1 nm bandwidth. CD melting experiments were carried out in the 20–100 °C temperature range, with 1 °C/min heating rate, by following changes in the CD signal at the wavelengths of the maximum CD intensity (i.e. 263 nm for c-Kit1 and c-Myc, and 290 nm for Tel23). As for Hairpin, CD melting curves were recorded by following the changes in the CD signal at 252 nm (the wavelength of the minimum CD intensity). CD melting curves were normalised between 0 and 1. […] The ΔT1/2 values correspond to the difference in the T1/2 values of the nucleic acid structures in the presence and absence of the compounds. All experiments were performed in duplicate, and the reported values are the mean of the two measurements.

[7] = tested on: c-Kit1; test: CD melting experiments, c-Kit1 GQ; assay type: binding; details: for ΔT1/2 c-Kit1: 2 molar equiv compound, T1/2 of DNA alone 55.0 °C; for ΔΔT1/2 c-Kit1: ΔT1/2 of compound minus ΔT1/2 of berberine, 2 molar equiv
Text: as §1, §2

[8] = biological target: T4, hCA I (Homo sapiens, UniProt P00915); test: stopped-flow CO2 hydrase assay, hCA I; assay type: biochemical
T4 construct: made in house
Protocol: as §4

[9] = sulphonamides, inhibitor-enzyme incubation 15 min
[10] = sulphonamides, inhibitor-enzyme incubation 15 min, mean ± SEM of three assays
[11] = coumarins, inhibitor-enzyme incubation 6 h

T4 sequence (P00915 whole entry): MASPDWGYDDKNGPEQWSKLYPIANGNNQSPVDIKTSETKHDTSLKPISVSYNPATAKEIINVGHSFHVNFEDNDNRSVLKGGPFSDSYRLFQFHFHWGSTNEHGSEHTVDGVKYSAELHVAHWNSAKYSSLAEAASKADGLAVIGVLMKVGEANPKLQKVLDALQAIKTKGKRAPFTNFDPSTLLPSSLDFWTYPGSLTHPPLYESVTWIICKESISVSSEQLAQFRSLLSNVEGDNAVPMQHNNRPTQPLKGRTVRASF
T1 sequence (O43570 25-354): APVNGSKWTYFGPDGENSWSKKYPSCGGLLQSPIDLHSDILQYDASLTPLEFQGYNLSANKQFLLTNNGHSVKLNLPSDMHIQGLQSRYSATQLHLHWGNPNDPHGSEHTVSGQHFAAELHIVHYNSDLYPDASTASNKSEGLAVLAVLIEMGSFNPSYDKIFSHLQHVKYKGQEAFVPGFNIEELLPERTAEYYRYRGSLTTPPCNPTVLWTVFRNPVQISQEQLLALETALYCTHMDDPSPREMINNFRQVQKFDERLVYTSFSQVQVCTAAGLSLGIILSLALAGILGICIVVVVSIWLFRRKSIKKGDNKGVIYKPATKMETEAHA

SMILES: COc1ccc2cc3[n+](cc2c1OCCn1cc(COc2ccc(S(N)(=O)=O)cc2)nn1)CCc1cc2c(cc1-3)OCO2 [Compound 27, 10-Methoxy-9–(2-(4-((4-sulfamoylphenoxy)methyl)-1H-1,2,3-triazol-1-yl)ethoxy)-5,6-dihydro-[1,3]dioxolo[4,5-g]isoquinolino[3,2-a]isoquinolin-7-ium hexafluorophosphate]
ΔT1/2 c-Myc [1]: 18.5 °C
ΔΔT1/2 c-Myc [1]: 6.5 °C
Selectivity index (SI) I/XII [2]: 213.7
Selectivity index (SI) II/XII [2]: 1.4
Ki [2, 9]: 4.4 nM
ΔT1/2 Tel23 [3]: 7.5 °C
ΔΔT1/2 Tel23 [3]: −2.0 °C
Ki [4, 10]: 6 nM
Selectivity index (SI) I/IX [5]: 1446
Selectivity index (SI) II/IX [5]: 9.2
Ki [5, 9]: 0.65 ± 0.05 nM
ΔT1/2 Hairpin [6]: -0.5 °C
ΔT1/2 c-Kit1 [7]: 18.5 °C
ΔΔT1/2 c-Kit1 [7]: 5.5 °C
Ki [8, 10]: 940 ± 52.1 nM

SMILES: COc1ccc2cc3[n+](cc2c1OCCCCn1cc(COc2ccc(S(N)(=O)=O)cc2)nn1)CCc1cc2c(cc1-3)OCO2 [Compound 31, 10-Methoxy-9–(4-(4-((4-sulfamoylphenoxy)methyl)-1H-1,2,3-triazol-1-yl)butoxy)-5,6-dihydro-[1,3]dioxolo[4,5-g]isoquinolino[3,2-a]isoquinolin-7-ium hexafluorophosphate]
ΔT1/2 c-Myc [1]: 13.0 °C
ΔΔT1/2 c-Myc [1]: 1.0 °C
Selectivity index (SI) I/XII [2]: 127.2
Selectivity index (SI) II/XII [2]: 9.9
Ki [2, 9]: 7.2 ± 0.5 nM
ΔT1/2 Tel23 [3]: 8.0 °C
ΔΔT1/2 Tel23 [3]: −1.5 °C
Ki [4, 10]: 71.5 ± 5.3 nM
Selectivity index (SI) I/IX [5]: 1308
Selectivity index (SI) II/IX [5]: 102.1
Ki [5, 9]: 0.71 ± 0.04 nM
ΔT1/2 Hairpin [6]: +0.2 °C
ΔT1/2 c-Kit1 [7]: 15.5 °C
ΔΔT1/2 c-Kit1 [7]: 2.5 °C
Ki [8, 10]: 916 ± 57.9 nM

SMILES: COc1ccc2cc3[n+](cc2c1OCCCCn1cc(CCOc2ccc4ccc(=O)oc4c2)nn1)CCc1cc2c(cc1-3)OCO2 [Compound 38, 10-Methoxy-9–(4-(4–(2-((2-oxo-2H-chromen-7-yl)oxy)ethyl)-1H-1,2,3-triazol-1-yl)butoxy)-5,6-dihydro-[1,3]dioxolo[4,5-g]isoquinolino[3,2-a]isoquinolin-7-ium hexafluorophosphate]
ΔT1/2 c-Myc [1]: 15.0 °C
ΔΔT1/2 c-Myc [1]: 3.0 °C
Ki [2, 11]: 16.7 ± 1.2 nM
Selectivity index (SI) I/XII [2]: > 598.8
Selectivity index (SI) II/XII [2]: > 598.8
ΔT1/2 Tel23 [3]: 7.5 °C
ΔΔT1/2 Tel23 [3]: −2.0 °C
Ki [4, 11]: > 100000 nM
Ki [5, 11]: 30.1 ± 1.8 nM
Selectivity index (SI) I/IX [5]: > 332.2
Selectivity index (SI) II/IX [5]: > 332.2
ΔT1/2 Hairpin [6]: -2.0 °C
ΔT1/2 c-Kit1 [7]: 17.5 °C
ΔΔT1/2 c-Kit1 [7]: 4.5 °C
Ki [8, 11]: > 100000 nM

Now from value to compound, other results behind:

Selectivity index (SI) I/XII [2]: 62.3
Selectivity index (SI) II/XII [2]: 4.8
Ki [2, 9]: 14 ± 1 nM
Ki [4, 10]: 66.8 ± 3.9 nM
Selectivity index (SI) I/IX [5]: 1194
Selectivity index (SI) II/IX [5]: 91.5
Ki [5, 9]: 0.73 ± 0.04 nM
Ki [8, 10]: 872 ± 55.9 nM
SMILES: COc1ccc2cc3[n+](cc2c1OCCCn1cc(-c2ccc(S(N)(=O)=O)cc2)nn1)CCc1cc2c(cc1-3)OCO2 [Compound 28, 10-Methoxy-9–(3-(4–(4-sulfamoylphenyl)-1H-1,2,3-triazol-1-yl)propoxy)-5,6-dihydro-[1,3]dioxolo[4,5-g]isoquinolino[3,2-a]isoquinolin-7-ium hexafluorophosphate]
ΔΔT1/2 c-Myc [1]: >13.0 °C
ΔΔT1/2 c-Myc ([1]; listed as S-3,0): > 13.0 °C
ΔT1/2 Tel23 [3]: 6.0 °C
ΔΔT1/2 Tel23 [3]: −3.5 °C
ΔT1/2 Hairpin [6]: -2.0 °C
ΔT1/2 c-Kit1 [7]: 16.5 °C
ΔΔT1/2 c-Kit1 [7]: 3.5 °C

Selectivity index (SI) I/XII [2]: 75.7
Selectivity index (SI) II/XII [2]: 14.2
Ki [2, 9]: 2.9 ± 0.1 nM
Ki [4, 10]: 41.1 ± 2.7 nM
Selectivity index (SI) I/IX [5]: 406.5
Selectivity index (SI) II/IX [5]: 76.1
Ki [5, 9]: 0.54 ± 0.03 nM
Ki [8, 10]: 219 ± 16.2 nM
SMILES: COc1ccc2cc3[n+](cc2c1OCCCCCn1cc(COc2ccc(S(N)(=O)=O)cc2)nn1)CCc1cc2c(cc1-3)OCO2 [Compound 33, 10-Methoxy-9-((5–(4-((4-sulfamoylphenoxy)methyl)-1H-1,2,3-triazol-1-yl)pentyl)oxy)-5,6-dihydro-[1,3]dioxolo[4,5-g]isoquinolino[3,2-a]isoquinolin-7-ium hexafluorophosphate]
ΔT1/2 c-Myc [1]: 12.5 °C
ΔΔT1/2 c-Myc [1]: 0.5 °C
ΔT1/2 Tel23 [3]: 10.5 °C
ΔΔT1/2 Tel23 [3]: 1.0 °C
ΔT1/2 Hairpin [6]: +0.2 °C
ΔT1/2 c-Kit1 [7]: 18.5 °C
ΔΔT1/2 c-Kit1 [7]: 5.5 °C

Ki [2, 11]: 18.9 ± 0.9 nM
Selectivity index (SI) I/XII [2]: > 529.1
Selectivity index (SI) II/XII [2]: > 529.1
Ki [4, 11]: > 100000 nM
Ki [5, 11]: 34.5 ± 2.4 nM
Selectivity index (SI) I/IX [5]: > 289.9
Selectivity index (SI) II/IX [5]: > 289.9
Ki [8, 11]: > 100000 nM
SMILES: COc1ccc2cc3[n+](cc2c1OCCCn1cc(CCOc2ccc4ccc(=O)oc4c2)nn1)CCc1cc2c(cc1-3)OCO2 [Compound 35, 10-Methoxy-9–(3-(4–(2-((2-oxo-2H-chromen-7-yl)oxy)ethyl)-1H-1,2,3-triazol-1-yl)propoxy)-5,6-dihydro-[1,3]dioxolo[4,5-g]isoquinolino[3,2-a]isoquinolin-7-ium hexafluorophosphate]
ΔT1/2 c-Myc [1]: 18.5 °C
ΔΔT1/2 c-Myc [1]: 6.5 °C
ΔT1/2 Tel23 [3]: 8.0 °C
ΔΔT1/2 Tel23 [3]: −1.5 °C
ΔT1/2 Hairpin [6]: +2.0 °C
ΔT1/2 c-Kit1 [7]: 18.5 °C
ΔΔT1/2 c-Kit1 [7]: 5.5 °C

Ki [2, 11]: 28.4 ± 1.7 nM
Selectivity index (SI) I/XII [2]: > 352.1
Selectivity index (SI) II/XII [2]: > 352.1
Ki [4, 11]: > 100000 nM
Ki [5, 11]: 58.9 ± 3.9 nM
Selectivity index (SI) I/IX [5]: > 169.8
Selectivity index (SI) II/IX [5]: > 169.8
Ki [8, 11]: > 100000 nM
SMILES: COc1ccc2cc3[n+](cc2c1OCCCn1cc(CCCOc2ccc4ccc(=O)oc4c2)nn1)CCc1cc2c(cc1-3)OCO2 [Compound 36, 10-Methoxy-9–(3-(4–(3-((2-oxo-2H-chromen-7-yl)oxy)propyl)-1H-1,2,3-triazol-1-yl)propoxy)-5,6-dihydro-[1,3]dioxolo[4,5-g]isoquinolino[3,2-a]isoquinolin-7-ium hexafluorophosphate]
ΔT1/2 c-Myc [1]: 15.0 °C
ΔΔT1/2 c-Myc [1]: 3.0 °C
ΔT1/2 Tel23 [3]: 12.5 °C
ΔΔT1/2 Tel23 [3]: 3.0 °C
ΔT1/2 Hairpin [6]: +0.5 °C
ΔT1/2 c-Kit1 [7]: 17.0 °C
ΔΔT1/2 c-Kit1 [7]: 4.0 °C
